Reference: ChEMBL document CHEMBL5537136 (J Med Chem, 2024)
Active and inactive are the calls of the source. The calls are words filed in the database; no cut-off is given here.

Assays:
CT26 [1] = experiment: Antitumor activity against mouse CT26 cells implanted in immunodeficient Balb/c mouse assessed as inhibition of tumor growth at 25 mg/kg, ip qod measured after 10 days relative to control; format: functional; details: CT26, 240 h, time 10 day, read-out: TGI
[2] = biological target: T1, Protein mono-ADP-ribosyltransferase TIPARP (Homo sapiens) (UniProt Q7Z3E1); experiment: Inhibition of PARP7 (unknown origin) at 100 nM measured after 1 hr incubation by microplate reader assay relative to control
T1 sequence (whole entry): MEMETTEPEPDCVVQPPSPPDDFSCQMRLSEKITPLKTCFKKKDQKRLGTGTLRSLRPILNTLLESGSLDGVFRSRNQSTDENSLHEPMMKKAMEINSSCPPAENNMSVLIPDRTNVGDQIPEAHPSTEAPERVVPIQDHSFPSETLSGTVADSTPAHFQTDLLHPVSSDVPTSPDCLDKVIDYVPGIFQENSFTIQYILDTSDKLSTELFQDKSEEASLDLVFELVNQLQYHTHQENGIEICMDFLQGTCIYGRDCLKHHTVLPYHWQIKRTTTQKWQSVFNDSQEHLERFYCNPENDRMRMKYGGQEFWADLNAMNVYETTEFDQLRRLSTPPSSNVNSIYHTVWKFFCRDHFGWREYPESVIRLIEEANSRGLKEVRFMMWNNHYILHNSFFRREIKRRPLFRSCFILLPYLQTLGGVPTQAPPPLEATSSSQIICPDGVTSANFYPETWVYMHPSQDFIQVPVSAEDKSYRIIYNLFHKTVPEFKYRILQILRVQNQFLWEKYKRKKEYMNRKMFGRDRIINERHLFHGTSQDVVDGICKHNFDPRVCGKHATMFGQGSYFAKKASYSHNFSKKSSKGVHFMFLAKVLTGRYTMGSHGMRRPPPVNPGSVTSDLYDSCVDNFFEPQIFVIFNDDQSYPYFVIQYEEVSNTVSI

[3] = biological target: Poly [ADP-ribose] polymerase 1 (Homo sapiens, UniProt P09874); experiment: Inhibition of PARP1 (unknown origin) measured after 1 hr incubation by microplate reader assay
[4] = biological target: T2, Protein mono-ADP-ribosyltransferase TIPARP (Homo sapiens, UniProt Q7Z3E1); experiment: Inhibition of PARP7 (unknown origin) measured after 1 hr incubation by microplate reader assay
T2 sequence (Q7Z3E1 whole entry): T1 sequence (whole entry)

[5] = Antiproliferative activity against mouse AML12 cells measured after 6 days incubation by MTT assay; format: toxicity, cell-based
[6] = Permeability across basolateral to apical side in human Caco-2 cells; format: ADME, cell-based
CYP3A4/5 = CYP3A4/5 (Homo sapiens, UniProt P08684+P20815); experiment: Inhibition of CYP3A4/5 (unknown origin); format: ADME, protein assay
[7] = Oral bioavailability in ICR mouse; format: ADME, organism-based; details: in vivo
[8] = Clearance in ICR mouse; format: ADME; details: in vivo
CT26 [9] = experiment: Antitumor activity in immunocompetent mouse CT26 cell bearing Balb/c mouse model assessed as induction of IFN-beta mRNA expression in tumor tissue at 100 mg/kg, IG treated twice a day measured after 14 days by quantitative real-time PCR analysis; format: functional, organism-based; details: time 14.0 day
CT26 [10] = experiment: Antitumor activity in immunocompetent mouse CT26 cell bearing mouse model assessed as tumor growth inhibition at 100 mg/kg, IG treated twice a day measured after 14 days relative to control; format: functional; details: CT26, po, 336 h, time 14 day, read-out: TGI
[11] = Permeability across apical to basolateral side in human Caco-2 cells; format: ADME, cell-based
Cytochrome P450 2D6 = Cytochrome P450 2D6 (Homo sapiens, UniProt P10635); experiment: Inhibition of CYP2D6 (unknown origin); format: ADME
Cytochrome P450 2C9 = Cytochrome P450 2C9 (Homo sapiens, UniProt P11712); experiment: Inhibition of CYP2C9 (unknown origin); format: ADME
Chain of Cytochrome P450 2C9 (P11712 whole entry): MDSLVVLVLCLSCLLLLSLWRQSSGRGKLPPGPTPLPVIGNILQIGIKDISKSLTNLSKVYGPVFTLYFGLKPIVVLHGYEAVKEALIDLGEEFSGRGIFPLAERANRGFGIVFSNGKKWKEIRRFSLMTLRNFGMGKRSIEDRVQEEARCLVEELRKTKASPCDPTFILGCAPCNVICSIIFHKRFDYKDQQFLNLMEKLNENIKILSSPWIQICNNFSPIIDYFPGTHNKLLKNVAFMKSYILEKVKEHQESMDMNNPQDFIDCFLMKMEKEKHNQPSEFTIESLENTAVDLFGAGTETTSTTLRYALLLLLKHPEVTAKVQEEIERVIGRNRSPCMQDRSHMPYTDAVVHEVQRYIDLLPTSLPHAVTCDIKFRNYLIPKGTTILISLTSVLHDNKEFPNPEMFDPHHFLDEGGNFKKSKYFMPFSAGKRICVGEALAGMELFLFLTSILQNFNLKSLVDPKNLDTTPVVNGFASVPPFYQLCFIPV

Chain of Poly [ADP-ribose] polymerase 1 (P09874 whole entry): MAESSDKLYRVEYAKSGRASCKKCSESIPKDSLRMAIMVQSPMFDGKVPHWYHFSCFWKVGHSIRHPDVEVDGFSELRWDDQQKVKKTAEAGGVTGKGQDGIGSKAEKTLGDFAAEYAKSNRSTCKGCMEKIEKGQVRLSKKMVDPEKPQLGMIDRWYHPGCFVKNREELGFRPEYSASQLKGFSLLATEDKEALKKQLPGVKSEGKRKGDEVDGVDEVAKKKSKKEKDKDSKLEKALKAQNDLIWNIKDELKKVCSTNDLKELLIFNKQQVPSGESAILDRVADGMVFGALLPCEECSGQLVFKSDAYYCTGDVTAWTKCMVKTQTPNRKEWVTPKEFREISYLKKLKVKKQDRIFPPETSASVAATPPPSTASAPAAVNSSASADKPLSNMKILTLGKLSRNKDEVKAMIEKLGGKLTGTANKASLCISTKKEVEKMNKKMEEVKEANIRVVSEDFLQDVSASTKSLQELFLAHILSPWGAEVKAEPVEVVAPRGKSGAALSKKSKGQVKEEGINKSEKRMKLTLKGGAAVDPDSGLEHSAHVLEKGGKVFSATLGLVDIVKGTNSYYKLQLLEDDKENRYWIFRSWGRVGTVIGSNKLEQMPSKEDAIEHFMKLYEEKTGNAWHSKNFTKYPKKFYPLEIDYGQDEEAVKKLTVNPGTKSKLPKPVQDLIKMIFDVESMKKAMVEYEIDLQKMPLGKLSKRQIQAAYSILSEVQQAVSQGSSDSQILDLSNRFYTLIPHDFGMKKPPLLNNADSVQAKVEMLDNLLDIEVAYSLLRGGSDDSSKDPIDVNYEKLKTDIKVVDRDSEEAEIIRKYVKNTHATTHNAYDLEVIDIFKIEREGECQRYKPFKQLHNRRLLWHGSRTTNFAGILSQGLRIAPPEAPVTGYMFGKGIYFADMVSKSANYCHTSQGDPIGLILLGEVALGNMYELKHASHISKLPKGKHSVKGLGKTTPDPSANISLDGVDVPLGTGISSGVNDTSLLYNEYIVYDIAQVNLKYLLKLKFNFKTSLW
Chain of Cytochrome P450 2D6 (P10635 whole entry): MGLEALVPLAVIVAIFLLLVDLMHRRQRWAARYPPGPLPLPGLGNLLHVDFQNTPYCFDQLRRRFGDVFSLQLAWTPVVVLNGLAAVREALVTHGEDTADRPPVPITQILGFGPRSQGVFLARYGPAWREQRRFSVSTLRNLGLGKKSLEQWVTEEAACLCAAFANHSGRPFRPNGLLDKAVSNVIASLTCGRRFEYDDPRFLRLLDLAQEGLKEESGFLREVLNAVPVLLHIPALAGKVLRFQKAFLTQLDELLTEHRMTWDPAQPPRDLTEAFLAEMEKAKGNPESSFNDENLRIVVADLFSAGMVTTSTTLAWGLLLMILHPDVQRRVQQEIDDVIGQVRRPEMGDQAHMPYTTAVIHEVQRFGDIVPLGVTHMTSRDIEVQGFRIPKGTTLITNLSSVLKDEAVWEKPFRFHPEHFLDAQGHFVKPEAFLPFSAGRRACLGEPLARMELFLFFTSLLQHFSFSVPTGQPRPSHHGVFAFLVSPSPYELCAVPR

O=c1[nH]cc(F)c(=O)[nH]1 [FLUOROURACIL]
inhibition in vivo at 25 mg/kg (CT26 [1]): 65%

NC(=O)c1cccc2cn(CC(=O)N3CCN(c4ncc(C(F)(F)F)cn4)CC3)nc12
inhibition [2]: 89% | IC50 [3]: > 1.3 µM | IC50 [4]: 0.046 µM

CC(C(=O)N1CCN(c2ncc(S(C)(=O)=O)cn2)CC1)n1cc2cccc(C(N)=O)c2n1 (stereo not drawn)
inhibition [2]: 25.6%

NC(=O)c1cccc2cn(CC(=O)N3CCN(c4ccc5c(c4)OC(F)(F)O5)CC3)nc12
inhibition [2]: 17.5%

NC(=O)c1cccc2cn(CCC(=O)N3CCN(c4ncc(C(F)(F)F)cn4)CC3)nc12
inhibition [2]: 33.9%

CC(C(=O)N1CCN(c2ncc(Br)cn2)CC1)n1cc2cccc(C(N)=O)c2n1 (stereo not drawn)
inhibition [2]: 85.6% | IC50 [4]: 0.0223 µM

NC(=O)c1cccc2cn(CC(=O)N3CCN(c4ccc(C(F)(F)F)cn4)CC3)nc12
inhibition [2]: 68.7% | IC50 [3]: > 1.3 µM

CC(C(=O)N1CCN(c2ncc(C#N)cn2)CC1)n1cc2cccc(C(N)=O)c2n1 (stereo not drawn)
inhibition [2]: 71%

C[C@@H](COCCC(=O)N1CCN(c2ncc(C(F)(F)F)cn2)CC1)Nc1cn[nH]c(=O)c1C(F)(F)F [ATAMPARIB]
IC50 at 6 days [5]: > 50 µM | Papp B→A [6]: 240 nm/s | IC50 (CYP3A4/5): > 30 µM | bioavailability [7]: 25.7% | clearance [8]: 4.02 L/h/kg | Activity (CT26 [9]): inactive | inhibition in vivo at 100 mg/kg (CT26 [10]): 4% | Papp A→B [11]: 41 nm/s | IC50 (Cytochrome P450 2D6): > 30 µM | IC50 (Cytochrome P450 2C9): > 30 µM

CC(C(=O)N1CCN(c2ncccn2)CC1)n1cc2cccc(C(N)=O)c2n1 (stereo not drawn)
inhibition [2]: 19.7%

CC(C(=O)N1CCN(c2ncc(F)cn2)CC1)n1cc2cccc(C(N)=O)c2n1 (stereo not drawn)
inhibition [2]: 64.5%

CCC(C(=O)N1CCN(c2ncc(C(F)(F)F)cn2)CC1)n1cc2cccc(C(N)=O)c2n1 (stereo not drawn)
inhibition [2]: 63%

COc1cnc(N2CCN(C(=O)C(C)n3cc4cccc(C(N)=O)c4n3)CC2)nc1 (stereo not drawn)
inhibition [2]: 65.5%

CC(C(=O)N1CCN(c2ccc3c(c2)OC(F)(F)O3)CC1)n1cc2cccc(C(N)=O)c2n1 (stereo not drawn)
inhibition [2]: 13%

NC(=O)c1cccc2cn(C(F)C(=O)N3CCN(c4ncc(C(F)(F)F)cn4)CC3)nc12 (stereo not drawn)
inhibition [2]: 63% | IC50 [4]: 0.122 µM

CC(C(=O)N1CCN(c2ccc(C(F)(F)F)cn2)CC1)n1cc2cccc(C(N)=O)c2n1 (stereo not drawn)
inhibition [2]: 91.2% | IC50 [4]: 0.02 µM

Cc1cnc(N2CCN(C(=O)C(C)n3cc4cccc(C(N)=O)c4n3)CC2)nc1 (stereo not drawn)
inhibition [2]: 79.5% | IC50 [4]: 0.062 µM
